Legend:
[1] = set-up: method as in Xu et al. (2016) and Jiang et al. (2008); conditions: 6G after oral administration in rats; ref Xu et al. (2016) and Jiang et al. (2008); cited from earlier work
[2] = Tissue distribution after single oral administration (30 mg/kg); format: in vivo; conditions: 1–2 h after oral 30 mg/kg
Procedure: Tissue distribution analysis was carried out after a 7-week washout period following the completion of the pharmacokinetic study. The animals received a single oral administration of either 6G, 6S, zingerone, or vehicle at a dosage of 30 mg/kg. Euthanasia was performed using an overdose of isoflurane (>10%) in an induction chamber, either one or 2 h after oral gavage (3 rats/timepoint), and death was confirmed by exsanguination. Subsequently, the stomach, small intestine, liver, large intestine, kidneys, heart, lung, hippocampus, cortex, spleen, ovaries, and spinal cord were collected. The dissected organs were thoroughly cleaned with a cold normal saline solution and the connective tissue was removed. The organs were then precisely weighed before being stored at −40 °C. All processes during tissue collection were performed on ice.
Urine samples were centrifuged, and 50 µL of urine was extracted with 200 µL of 100% methanol. The mixture was vortexed for 10 min and subsequently centrifuged at 14,000 × g at 4 °C for 10 min. Feces and organs were weighed and homogenized with methanol (50:50% w/v). The supernatants of the extracted urine, feces, and organs were also filtered through a […] PVDF membrane (Chrome Tech, MN, USA) before analysis.
Plasma concentration-time profiles were plotted using GraphPad Prism 9.3.0 (GraphPad Software, USA). The absolute oral bioavailability was calculated as follows: F = (AUC p.o./dose p.o.)/(AUC i.v./dose i.v.). The percentage recovery of each administered compound was calculated as the total amount of the drug found in urine or feces divided by the administered dose. The tissue-to-plasma concentration ratios (K p) were calculated by dividing the concentration in the tissue by the corresponding plasma concentration at the respective sampling time point.

[3] = Pharmacokinetics after single intravenous administration (3 mg/kg), plasma LC-MS/MS; format: in vivo, Female Sprague Dawley rats; conditions: female, Sprague-Dawley, rat, iv, plasma analyte after zingerone i.v. 3 mg/kg, mean ± SD n=6
Procedure: This study is composed of two sections; the first section involves an investigation of the interconversion pharmacokinetics of the pure compounds, and the second focuses on tissue distribution. All rats were transferred to metabolic cages and fasted overnight for at least 10 h. The animals were then randomly divided into four groups (6 rats/group) to receive a single intravenous (i.v.) administration of either 6G, 6S, zingerone, or vehicle via the lateral tail vein at a dosage of 3 mg/kg. After a 7-week washout period, the rats received 30 mg/kg of the same test compounds through a single oral (p.o.) administration. Following each administration, blood samples (300 µL) were collected in heparinized tubes from the lateral tail vein (while rats were under anesthesia with isoflurane) at specified time points: 0.083, 0.25, 0.5, 1, 1.5, 2, 3, 4, 6, 8, and 24 h after administration. An additional 1 mL of blood sample was collected from each rat at pre-dose (0 h) and post-dose (24 h) for clinical laboratory testing and safety evaluation. All heparinized blood samples were initially centrifuged at 5,000 × g, 4 °C, for 10 min. Subsequently, the plasma was carefully transferred to a cryotube as an aliquot sample and then stored at −40 °C until analysis. Urine and feces were collected during the intervals of 0–24 h and 24–48 h post-dosing, and their weights and volumes were documented. All collected urine and feces samples were stored at −40 °C until analysis. Plasma samples were processed through protein precipitation. In brief, 50 µL of plasma was mixed with 200 µL of methanol containing 50 ng/mL of IS (dihydrocapsaicin). The mixtures were vortexed and centrifuged at 14,000 × g at 4 °C for 10 min. The supernatant was filtered through a […] PVDF membrane (Chrome Tech, MN, USA) before analysis. Investigation of glucuronide conjugations followed a previously published method with some modification ([Wang et al., 2017]; [Songvut et al., 2023]). A 50 μL aliquot of plasma, urine, or feces sample was incubated at 37 °C for a minimum of 30 min with 50 μL of β-glucuronidase (3,000 U/mL) in a sodium phosphate buffer (pH 6.8). For sample extraction, 150 μL of methanol containing 50 μg/L of IS was pipetted into the pre-incubated samples. Subsequently, the mixtures were vortexed for 10 min and then centrifuged at 14,000 × g at 4 °C for 10 min. The supernatants were filtered through a […] PVDF membrane (Chrome Tech, MN, United States) and then analyzed using the validated LC-MS/MS method. Quantitative analysis was conducted using liquid chromatography-tandem mass spectrometry (LC-MS/MS) with a Nexera X2 LCMS-8060NX instrument (Shimadzu, Japan). The instrument included a CBM-40lite system controller, CTO-40C column oven, SIL-40C XR autosampler, LC-40D XR solvent pump unit, FCV-DGU-403 degasser, and 20AH2 switching valve. The LC-MS/MS system was operated with a binary pump and equipped with a triple quadrupole mass spectrometer. Pharmacokinetic parameters were assessed using PK Solutions software (version 2.0) with non-compartmental analysis. The AUC was calculated using the Linear-Log Trapezoidal Method. The maximum plasma concentration (Cmax) and time to reach maximum plasma concentration (Tmax) were taken directly from the graph.

CCCCC[C@H](O)CC(=O)CCc1ccc(O)c(OC)c1 [[6]-gingerol]
Tmax [1]: 10 min

CCCCC/C=C/C(=O)CCc1ccc(O)c(OC)c1 [[6]-shogaol]
distribution to brain regions (hippocampus and cortex) [2]: lacking presence in key brain regions

COc1cc(CCC(C)=O)ccc1O [zingerone, 4-(4-hydroxy-3-methoxyphenyl)-2-butanone]
AUC(0-inf) [3]: 12600 ng·h/mL | C0 [3]: 35100 ng/mL | AUC(0-t) ([3]; read-out: AUC(0-t)): 12600 ng·h/mL | distribution to brain regions (hippocampus and cortex) [2]: higher concentrations | tissue-to-plasma ratios (rank among compounds) [2]: highest

From paper PMC11187260, “Unraveling the interconversion pharmacokinetics and oral bioavailability of the major ginger constituents: [6]-gingerol, [6]-shogaol, and zingerone after single-dose administration in rats” (Frontiers in Pharmacology, 2024)
